# Assay results published in patent publication US11242334B2, “Heterocyclic compounds as kinase inhibitors, compositions comprising the heterocyclic compound, and methods of use thereof” (JS INNOPHARM (SHANGHAI) LTD, priority 2017, dated 2022).
# Test system: Colo205 cell line
# Experiment: Colo205 cell proliferation assay (MTT assay, WST-8 readout)
# Type: cell-based
# Conditions: Homo sapiens; IC50 values of growth inhibition in Colo 205 cells; 72 hours
# Procedure: Compounds disclosed herein were tested for the inhibition of ERK2 by a Colo205 cell proliferation assay commonly known as MTT assay. In this assay, a complete media was prepared by adding 10% fetal bovine serum to RPMI-1640 medium (Life technology). Colon cancer cells (Colo205 cell line) were added to each of 88 wells of a 96 well plate at a seeding density of 5,000 cells/well/90 μL. The cells were allowed to attach to the plate by incubating at 37° C. for 24 hours. The compound was dissolved in DMSO (SIGMA). A solution of test compound was prepared in complete media by serial dilution to obtain the following concentrations: 500 μM, 150 μM, 50 μM, 15 μM, 5 μM, 1.5 μM, 0.5 μM, 0.15 μM and 0.05 μM. The test compound solution (10 μL) was added to each of 80 cell-containing wells. The final concentrations of the compound were following: 50 μM, 15 μM, 5 μM, 1.5 μM, 0.5 μM, 0.15 μM, 0.05 μM, 0.015 μM and 0.005 μM. The final concentration of DMSO is 0.5%. To the 8 remaining cell-containing wells, only complete media (containing 0.5% DMSO) was added to form a control group in order to measure maximal proliferation. To the remaining 8 empty wells, complete media was added to for a vehicle control group in order to measure background. The plates were incubated at 37° C. for 72 hours. 10 μL WST-8 solution (DOJINDO, Cell Counting KIT-8) was added to each well. The plates were further incubated at 37° C. for 2 hours, and then read for the absorbance using a microplate reader at 450 nm.
# The IC50 values of growth inhibition in Colo 205 cells for Compounds disclosed are listed in Table 3, A′: ≤0.5 μM; B′: >0.5 μM and ≤1 μM; C′: >1.0 μM and ≤5 uM; D′: >5 μM.
row,Compound,IC50
1,"Cc1cc(-c2n[nH]c3ccc(-c4ccn([C@H](C)c5ccnc(C(F)(F)F)c5)c(=O)c4)cc23)ccn1 (single isomer, unassigned) [Example 142B]",≤ 500 nM
2,"Cc1cc(-c2n[nH]c3ccc(-c4ccn(CCN5CCOCC5)c(=O)c4)cc23)ccn1 [Example 54, 4-(3-(2-methylpyridin-4-yl)-1H-indazol-5-yl)-1-(2-morpholinoethyl)pyridin-2(1H)-one]",> 5000 nM
3,"O=c1cc(-c2ccc3[nH]nc(-c4ccc(F)cn4)c3c2)ccn1[C@H](CO)c1cc(F)cc(Br)c1 [Example 125, (S)-1-(1-(3-bromo-5-fluorophenyl)-2-hydroxyethyl)-4-(3-(5-fluoropyridin-2-yl)-1H-indazol-5-yl)pyridin-2(1H)-one]",500 to 1000 nM
4,"O=c1cc(-c2ccc3[nH]nc(-c4ccnc(C(F)(F)F)c4)c3c2)ccn1Cc1ccnc(C(F)(F)F)c1 [Example 126, 4-(3-(2-(trifluoromethyl)pyridin-4-yl)-1H-indazol-5-yl)-1-((2-(trifluoromethyl)pyridin-4-yl)methyl)pyridin-2(1H)-one]",> 5000 nM
5,"Cc1cc(Cn2ccc(-c3ccc4[nH]nc(-c5ccnc(C)c5)c4c3)cc2=O)ccn1 [Example 127, 4-(3-(2-methylpyridin-4-yl)-1H-indazol-5-yl)-1-((2-methylpyridin-4-yl)methyl)pyridin-2(1H)-one]",1000 to 5000 nM
6,"O=c1cc(-c2ccc3[nH]nc(-c4ccc5ncnn5c4)c3c2)ccn1[C@H](CO)c1cc(F)cc(Br)c1 [Example 128, (S)-4-(3-([1,2,4]triazolo[1,5-a]pyridin-6-yl)-1H-indazol-5-yl)-1-(1-(3-bromo-5-fluorophenyl)-2-hydroxyethyl)pyridin-2(1H)-one]",≤ 500 nM
7,"O=c1cc(-c2ccc3[nH]nc(-c4ccc5nccn5c4)c3c2)ccn1[C@H](CO)c1cc(F)cc(Br)c1 [Example 129, (S)-1-(1-(3-bromo-5-fluorophenyl)-2-hydroxyethyl)-4-(3-(imidazo[1,2-a]pyridin-6-yl)-1H-indazol-5-yl)pyridin-2(1H)-one]",≤ 500 nM
8,"Cc1nc2ccc(-c3n[nH]c4ccc(-c5ccn([C@H](CO)c6cc(F)cc(Br)c6)c(=O)c5)cc34)cn2n1 [Example 130, (S)-1-(1-(3-bromo-5-fluorophenyl)-2-hydroxyethyl)-4-(3-(2-methyl-[1,2,4]triazolo[1,5-a]pyridin-6-yl)-1H-indazol-5-yl)pyridin-2(1H)-one]",≤ 500 nM
9,"Cc1cc(-c2n[nH]c3ccc(-c4ccn(Cc5ccc(C(F)(F)F)nc5)c(=O)c4)cc23)ccn1 [Example 131, 4-(3-(2-methylpyridin-4-yl)-1H-indazol-5-yl)-1-((6-(trifluoromethyl)pyridin-3-yl)methyl)pyridin-2(1H)-one]",1000 to 5000 nM
10,"CCc1cc(-c2n[nH]c3ccc(-c4ccn(Cc5ccnc(C(F)(F)F)c5)c(=O)c4)cc23)ccn1 [Example 132, 4-(3-(2-ethylpyridin-4-yl)-1H-indazol-5-yl)-1-((2-(trifluoromethyl)pyridin-4-yl)methyl)pyridin-2(1H)-one]",1000 to 5000 nM
11,"O=c1cc(-c2ccc3[nH]nc(-c4ccnc(C5CC5)c4)c3c2)ccn1Cc1ccnc(C(F)(F)F)c1 [Example 133, 4-(3-(2-cyclopropylpyridin-4-yl)-1H-indazol-5-yl)-1-((2-(trifluoromethyl)pyridin-4-yl)methyl)pyridin-2(1H)-one]",1000 to 5000 nM
12,"Cc1cc(-c2n[nH]c3ccc(-c4ccn([C@H](CO)c5ccnc(C(F)(F)F)c5)c(=O)c4)cc23)ccn1 [Example 134, (S)-1-(2-hydroxy-1-(2-(trifluoromethyl)pyridin-4-yl)ethyl)-4-(3-(2-methylpyridin-4-yl)-1H-indazol-5-yl)pyridin-2(1H)-one]",1000 to 5000 nM
13,Cc1cc(-c2n[nH]c3ccc(-c4ccn(Cc5nc(C(F)(F)F)cs5)c(=O)c4)cc23)ccn1 [Example 135],1000 to 5000 nM
14,"Cc1cc(-c2n[nH]c3ccc(-c4ccn(Cc5cccnc5C(F)(F)F)c(=O)c4)cc23)ccn1 [Example 136, 4-(3-(2-methylpyridin-4-yl)-1H-indazol-5-yl)-1-((2-(trifluoromethyl)pyridin-3-yl)methyl)pyridin-2(1H)-one]",1000 to 5000 nM
15,"Cc1cc(-c2n[nH]c3ccc(-c4ccn(Cc5cccc(C(F)(F)F)n5)c(=O)c4)cc23)ccn1 [Example 137, 4-(3-(2-methylpyridin-4-yl)-1H-indazol-5-yl)-1-((6-(trifluoromethyl)pyridin-2-yl)methyl)pyridin-2(1H)-one]",500 to 1000 nM
16,"Cc1nn(C)cc1-c1n[nH]c2ccc(-c3ccn([C@H](CO)c4cc(F)cc(Br)c4)c(=O)c3)cc12 [Example 138, (S)-1-(1-(3-bromo-5-fluorophenyl)-2-hydroxyethyl)-4-(3-(1,3-dimethyl-1H-pyrazol-4-yl)-1H-indazol-5-yl)pyridin-2(1H)-one]",500 to 1000 nM
17,"Cc1cc(-c2n[nH]c3ccc(-c4ccn(Cc5cc(C(F)(F)F)no5)c(=O)c4)cc23)ccn1 [Example 139, 4-(3-(2-methylpyridin-4-yl)-1H-indazol-5-yl)-1-((3-(trifluoromethyl)isoxazol-5-yl)methyl)pyridin-2(1H)-one]",1000 to 5000 nM
18,"CNc1n[nH]c2ccc(-c3ccn([C@H](CO)c4cc(F)cc(Br)c4)c(=O)c3)cc12 [Example 141, (S)-1-(1-(3-bromo-5-fluorophenyl)-2-hydroxyethyl)-4-(3-(methylamino)-1H-indazol-5-yl)pyridin-2(1H)-one]",1000 to 5000 nM
19,"O=c1cc(-c2ccc3[nH]nc(C4CCOC4)c3c2)ccn1[C@H](CO)c1cc(F)cc(Br)c1 (stereo partly drawn) [Example 150, 1-((S)-1-(3-bromo-5-fluorophenyl)-2-hydroxyethyl)-4-(3-(tetrahydrofuran-3-yl)-1H-indazol-5-yl)pyridin-2(1H)-one]",1000 to 5000 nM
20,"O=c1cc(-c2ccc3[nH]nc(N4CCC(O)C4)c3c2)ccn1[C@H](CO)c1cc(F)cc(Br)c1 (stereo partly drawn) [Example 151, 1-((S)-1-(3-bromo-5-fluorophenyl)-2-hydroxyethyl)-4-(3-(3-hydroxypyrrolidin-1-yl)-1H-indazol-5-yl)pyridin-2(1H)-one]",1000 to 5000 nM

# Same assay, conditions: IC50 values of growth inhibition in Colo 205 cells; 72 hours
row,Compound,IC50
1,"Cc1cc(-c2n[nH]c3ccc(-c4ccn([C@@H](C)c5ccnc(C(F)(F)F)c5)c(=O)c4)cc23)ccn1 [Example 142A, (S)-4-(3-(2-methylpyridin-4-yl)-1H-indazol-5-yl)-1-(1-(2-(trifluoromethyl)pyridin-4-v1)ethyl)pyridin-2(1H)-one]",1000 to 5000 nM
